Entries after “also recorded” stand apart in the source; their conditions may differ.
Key:
[1] = tested on: normal, healthy, adult male and female volunteers; test: Safety assessment (Example 5)
Experimental: (§1) In Example 5, a single center, placebo controlled, double-blind, randomized 9-treatment, 3 period crossover trial with an open-label screening phase was conducted.

[2] = tested on: subjects receiving methadone maintenance therapy; test: Double-blind crossover, subjective and physiologic opioid agonist/antagonist measures (Example 6)
[3] = tested on: healthy volunteers with hyperalgesia; test: Thermal Discomfort and Pain Latency testing (Example 7); type: in vivo, human
Experimental: (§2) Example 7 consisted of a single center trial conducted as a placebo-controlled, double-blind, randomized, 4-treatment, 4-period crossover study, which included a single-blind phase. Each treatment sequence consisted of 4 treatment periods, each of 4 hours duration, separated by at least a 5-day washout interval. […] The total duration of this study, including screening, was approximately 52 days.
(§3) After at least 5 days, those subjects who successfully completed the single-blind phase were randomized into the double-blind phase of the study. Healthy male and female volunteers were enrolled in this study.
A test site and a control site were selected on each forearm and marked with a washable marker. Next, the topical anesthetic was applied to the test site. After approximately 1.5 hours (allowing for the anesthetic to take effect), the cream was removed and a thermal stimulus was applied to the test site for 3 minutes using a copper mass heated to 52° C. […]
Thermal Discomfort testing was designed to measure a subject's perception of discomfort following a 5-second contact with a warmed 1″ diameter copper mass (Uniformed Services University of the Health Sciences, Bethesda, Md.). […] The distance from the left anchor to the vertical mark was measured and was used as the quantitative measure of Thermal Discomfort. […]

[4] = tested on: healthy volunteers with hyperalgesia; test: Pupillometry (Example 7); type: in vivo, human
Experimental: Each treatment sequence consisted of 4 treatment periods, each of 4 hours duration, separated by at least a 5-day washout interval. […] The total duration of this study, including screening, was approximately 52 days.
as §3
(§4) The same test measurements conducted at baseline were then conducted at 0.5, 1, 2, 3, and 4 hours postdosing. Thermal Discomfort and Pain Latency testing were conducted at each time point on the control site (area on the other forearm, which was not subjected to the thermal stimulus). Testing on the control site was done prior to the test site for each time point. Each subject rested and recovered for no less than 5 days before returning for the next period. In the follow-up phase, subjects returned to the clinic within 7 days after completion of the study for a final check of the test site and a review of the subject's laboratory data prior to official discharge from the study.
Pupillometry was performed to measure the effect of the study treatment on pupil diameter. The pupil was photographed using a Polaroid One-Step Closeup Camera (Polaroid Corporation, Cambridge, Mass.) with modified 2× magnification oculars (John Hopkins University, Baltimore, Md.) and Polaroid 600 color film (Polaroid Corporation, Cambridge, Mass.). […] The camera was positioned on the subject's eye socket, aligning the iris with the middle of the opening of the lens adapter. The pupil diameter was measured from the photograph, in millimeters, using Model CD-6C Mitutoyo digital calipers (Judge Tool Sales, Southport, Conn.). The same eye was measured at all times for each subject.

[5] = tested on: minute ventilation in normal, healthy, adult male and female volunteers; test: CO2 rebreathing test, double-blind crossover trial (Example 5); type: in vivo, human; conditions: oral NTX 0.125 to 8.0 mg with 15, 20 or 25 mg oral HYIR
Experimental: as §1

healthy volunteers = test: Safety and adverse events (Example 7); type: in vivo, human
Experimental: as §2
An AE (adverse event) was defined as any unfavorable and unintended sign (including abnormal laboratory findings), symptom or disease temporally associated with the use of a medicinal product, whether or not considered related to the medicinal product. An AE was classified as a TEAE (treatment emergent adverse event) only if the AE occurred after the first dose of the study drug was administered to a subject who was enrolled in the study. The period of observation for TEAEs was from the time that the first dose of study medication was administered until release from the study after completion of period 4 or at early discontinuation. All AEs reported by the subject or observed by the investigator/study staff were fully documented throughout the study. When AEs were encountered that required medical intervention, appropriate supportive and/or definitive therapy was provided by appropriately qualified and licensed medical personnel. […]

[6] = tested on: subjects on methadone maintenance therapy; test: Open-label naltrexone titration safety assessment (Example 6); type: in vivo, human; conditions: 2 subjects, 30 mg hydrocodone at 0 hr, naltrexone at hourly intervals, oral
Experimental: Example 6 consisted of open-label and double-blind treatment phases conducted in male and female subjects receiving daily oral methadone maintenance doses from 60 to 90 mg. The methadone maintenance dose was given to the subject the day before each scheduled period. Administration of study medication occurred no sooner than 16 hours and no later than 22 hours after the methadone maintenance dose was given. 14 subjects were enrolled in the study (2 subjects, open-label phase (ascending dose naltrexone safety assessment) and 12 subjects, double-blind phase).
The open-label phase was a safety assessment of the 2 naltrexone doses (0.75 and 2.0 mg) planned in the protocol in subjects on methadone maintenance therapy. This phase of the study consisted of a screening visit conducted up to 14 days before administration of study drug, and a naltrexone titration visit. During the naltrexone titration visit, 2 subjects were to receive 30 mg of hydrocodone and 0.125 mg of naltrexone at 0 hr, with additional doses of naltrexone, up to a cumulative dose of 2.0 mg, administered at hourly intervals over the next 4 hours. In the open-label phase, neither subject received more than a 1.0-mg cumulative dose of naltrexone before rescue with methadone was required. […]

[7] = tested on: subjects receiving methadone maintenance therapy; test: Safety measures, double-blind phase (Example 6); type: in vivo, human; conditions: with increasing NTX dose; most mild or moderate
[8] = tested on: healthy volunteers with hyperalgesia; test: Subjective Symptom Rating Scale and Drug Rating Questionnaire (Example 7); type: in vivo, human
Experimental: as §2, §3, §4
The Symptom Rating Scale Questionnaire consisted of 25 items. […]

[9] = 0.25-mg NTX dose with 30 mg HYIR
[10] = 0.5-mg NTX dose with 30 mg HYIR

COc1ccc2c3c1O[C@H]1C(=O)CC[C@H]4[C@@H](C2)N(C)CC[C@]314.O=C(O)C(O)C(O)C(=O)O [HYIR, Hydrocodone bitartrate]
safety concerns ([1]; 15-, 20-, or 25-mg doses of HYIR): no new safety concerns | changes from predose in all pharmacodynamic variables ([2]; 30 mg HYIR plus NTX placebo): minimal changes from predose | subjects requiring a rescue dose of methadone ([2]; 30 mg HYIR plus NTX placebo): 4 of the 12 | subjective or physiologic opioid agonist activity ([2]; 30-mg oral dose of HYIR): did not produce significant subjective or physiologic opioid agonist activity | trend of treatment means (PDmax and AUC) over the 3 periods, FIGS. 1-12 ([2]; HYIR+NTX placebo treatment): increase in subjective and physiologic opioid agonist effects

O=C1CC[C@@]2(O)[C@H]3Cc4ccc(O)c5c4[C@@]2(CCN3CC2CC2)[C@H]1O5 [NTX, Naltrexone HCI]
safety concerns ([1]; NTX 0.125 to 8.0 mg combined with 15, 20 or 25 mg HYIR): no new safety concerns | difference vs HYIR+placebo NTX in mean Thermal Discomfort VAS scores, Pain Latency, derived pharmacodynamic metrics of hyperalgesia ([3]; 15 mg HYIR + 0.25-, 0.5-, or 1.0-mg NTX, oral): no statistically significant differences | reduction of the analgesia produced by 15 mg oral HYIR (Thermal Discomfort VAS scores and Pain Latency testing) ([3]; NTX 0.25, 0.5, or 1.0-mg): None of the doses of NTX used in this study (0.25, 0.5, or 1.0-mg) produced a statistically significant reduction | statistically significant increase in pupil diameter PDmax compared with HYIR+placebo NTX ([4]; HYIR+0.5 mg NTX and HYIR+1.0-mg NTX): not | NTX dose-related effect on the physiologic opioid agonist activity of the 15-mg dose of HYIR ([4]; NTX 0.25, 0.5, 1.0 mg): no consistent NTX dose-related effect | HYIR-induced pupil constriction ([4]; all NTX doses (0.25, 0.5, 1.0 mg) with 15 mg HYIR): reduced HYIR-induced pupil constriction | effect on HYIR-induced respiratory depression (% MPE20, % MPE30, double-blind MPE20 and MPE30) [5]: statistically significant trend toward less respiratory depression; also recorded: blocked respiratory depression | aversive effects in methadone-maintained subjects ([2]; 0.25- and 0.5-mg oral NTX doses): elicit aversive effects | negative feeling states and antagonist activity (precipitated withdrawal) [2, 9]: threshold dose with a trend toward negative feeling states | subjects requiring a rescue dose of methadone [2, 9]: Approximately 60% | difference from NTX placebo treatment in mean PDmax, all queries except "Feeling sick" [2, 10]: statistically significant differences | precipitated withdrawal (Drug Effects Scales, antagonist total score, pupil diameter vs NTX placebo) [2, 10]: strong evidence of precipitated withdrawal | subjects requiring a rescue dose of methadone [2, 10]: ~90% | negative feeling states and precipitated withdrawal, dose dependence ([2]; NTX 0.25 and 0.5 mg with 30 mg HYIR): dose-dependent increases in negative feeling states and precipitated withdrawal | effect on all secondary pharmacodynamic variables except the agonist total scores from the Subjective and Observer Symptom Rating Scales ([2]; NTX 0.25 and 0.5 mg with 30 mg HYIR, not always statistically significant): dose-related effect | effect on mean PDmax values for all 4 queries on the Subjective Drug Effects Scale ([2]; NTX 0.25 to 0.5 mg with 30 mg HYIR): dose-related effect | appeal and abuse liability potential of HYIR ([2]; low dose NTX added to HYIR, subjects physically dependent on opioids): decreased the appeal | number of reported TEAEs commonly associated with opioid use (healthy volunteers; 15 mg HYIR with increasing NTX dose): decreased with increased NTX dose | safety concerns (healthy volunteers; 15 mg of oral HYIR combined with 0.25, 0.5, or 1.0-mg NTX): no safety concerns | cumulative dose of naltrexone received before rescue with methadone was required [6]: ≤ 1.0 mg | treatment-emergent adverse events commonly associated with opioid withdrawal per subject [7]: increase in the number of treatment-emergent adverse events | subjective opioid agonist effects of HYIR (Subjective Symptom Rating Scale and Subjective Drug Rating Questionnaire) ([8]; 15 mg HYIR with placebo, 0.25, 0.5 or 1.0 mg NTX): no statistically significant differences among the treatments or consistent NTX dose-related trends | NTX dose-related effect on the subjective opioid agonist activity of the 15-mg dose of HYIR ([8]; NTX 0.25, 0.5, 1.0 mg): no consistent NTX dose-related effect
